From ChEMBL document CHEMBL5154904, “Discovery and Structural Basis of the Selectivity of Potent Cyclic Peptide Inhibitors of MAGE-A4” (J Med Chem, 2022)
Where a chain is given by its changes, count along the chain named. Active and inactive are the calls of the source. The calls are words filed in the database; no cut-off is given here. Positions of bridges follow the written chain, without caps; N, C: chain ends. Residues, ends and D or L forms follow the SMILES beside them.

Tests used:
[1] = tested on: T1, Melanoma-associated antigen 4 (Homo sapiens), P43358 [D115R]; test: Binding affinity to recombinant N-terminal His-tagged MAGEA4-MH domain D115R mutant (unknown origin) expressed in Escherichia coli BL21-(DE3) assessed as increase in thermal stability by SYPRO orange dye based differential scanning fluorimetry; settings: dose <= 10.0 µM
T1 sequence (whole entry): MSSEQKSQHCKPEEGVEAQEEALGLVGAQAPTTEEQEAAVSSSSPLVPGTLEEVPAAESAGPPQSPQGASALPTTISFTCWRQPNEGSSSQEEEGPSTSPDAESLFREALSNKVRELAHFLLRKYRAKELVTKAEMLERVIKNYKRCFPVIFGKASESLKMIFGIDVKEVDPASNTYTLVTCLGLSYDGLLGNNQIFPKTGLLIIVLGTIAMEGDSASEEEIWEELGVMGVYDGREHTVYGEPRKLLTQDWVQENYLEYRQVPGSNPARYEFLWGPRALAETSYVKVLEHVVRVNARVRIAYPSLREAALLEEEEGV

[2] = Inhibition of Eu-W1024 streptavidin-labeled 6 xHis-tagged MAGEA4-MH domain (unknown origin) expressed in Escherichia coli BL21-(DE3)/GST-tagged RAD18 (unknown origin) (267 to 402 residues) interaction using Ulight-anti-GST antibody incubated for 30 to 60 mins by LANCE TR-FRET assay; design: species or system Homo sapiens
[3] = tested on: T2, Melanoma-associated antigen 4 (Homo sapiens), P43358 [I205A]; test: Binding affinity to recombinant N-terminal His-tagged MAGEA4-MH domain I205A mutant (unknown origin) expressed in Escherichia coli BL21-(DE3) assessed as increase in thermal stability by SYPRO orange dye based differential scanning fluorimetry; settings: dose <= 10.0 µM
T2 sequence (whole entry): T1 sequence (whole entry) with R115D, I205A

[4] = target: T3, Melanoma-associated antigen 4 (Homo sapiens) (UniProt P43358); test: Binding affinity to recombinant N-terminal His-tagged MAGEA4-MH domain (unknown origin) expressed in Escherichia coli BL21-(DE3) assessed as protection in trypsin-induced MAGEA4 protein degradation incubated for 1 hr by proteolysis based SDS-PAGE analysis
T3 sequence (whole entry): T1 sequence (whole entry) with R115D

[5] = tested on: NCI-H1299; test: Inhibition of MAGEA4 in human NCI-H1299 cell lysate interaction with HA-tagged RAD18 (unknown origin) at 20 nM incubated for overnight by co-immunoprecipitation pull down assay; format: subcellular
[6] = tested on: T4, Melanoma-associated antigen 4 (Homo sapiens), P43358 [M229A]; test: Binding affinity to recombinant N-terminal His-tagged MAGEA4-MH domain M229A mutant (unknown origin) expressed in Escherichia coli BL21-(DE3) assessed as increase in thermal stability by SYPRO orange dye based differential scanning fluorimetry; settings: dose <= 10.0 µM
T4 sequence (whole entry): T1 sequence (whole entry) with R115D, M229A

[7] = tested on: T5, Melanoma-associated antigen 4 (Homo sapiens), P43358 [V294A]; test: Binding affinity to recombinant N-terminal His-tagged MAGEA4-MH domain V294A mutant (unknown origin) expressed in Escherichia coli BL21-(DE3) assessed as increase in thermal stability by SYPRO orange dye based differential scanning fluorimetry; settings: dose <= 10.0 µM
T5 sequence (whole entry): T1 sequence (whole entry) with R115D, V294A

[8] = tested on: T6, Melanoma-associated antigen 4 (Homo sapiens), P43358 [R297A]; test: Binding affinity to recombinant N-terminal His-tagged MAGEA4-MH domain R297A mutant (unknown origin) expressed in Escherichia coli BL21-(DE3) assessed as increase in thermal stability by SYPRO orange dye based differential scanning fluorimetry; settings: dose <= 10.0 µM
T6 sequence (whole entry): T1 sequence (whole entry) with R115D, R297A

[9] = target: T7, Melanoma-associated antigen 4 (Homo sapiens, UniProt P43358); test: Binding affinity to MAGEA4 (unknown origin) expressed in Escherichia coli BL21-(DE3) by isothermal titration calorimetry
T7 sequence (P43358 whole entry): T1 sequence (whole entry) with R115D

Tm [1]: < 3.5 °C
IC50 [2]: 0.00365 µM
Tm [3]: < 3.5 °C
Activity [4]: Active
inhibition [5]: Active
Tm [6]: < 3.5 °C
Tm [7]: < 3.5 °C
Tm [8]: < 3.5 °C
Kd [9]: 0.0368 µM
Compound: CC[C@H](C)[C@@H]1NC(=O)[C@H](Cc2ccc(O)cc2)NC(=O)CSC[C@@H](C(N)=O)NC(=O)[C@H](CC(N)=O)NC(=O)[C@H](Cc2cnc[nH]2)NC(=O)[C@H](Cc2ccc(O)cc2)NC(=O)[C@H](CC(=O)O)NC(=O)[C@H](Cc2ccc(O)cc2)NC(=O)[C@H](CC(C)C)NC(=O)[C@H](CCCNC(=N)N)NC1=O ({CH2CO}-YIRLYDYHNC-NH2; thioether N-10)
